The test system of assay [1] is cats with chronic renal failure. Kind of assay: GFR from plasma clearance of iohexol in client-owned normotensive cats with spontaneous chronic renal failure (Experiment 2). The class given is in vivo, cat. The text has this:
The data in the Table below were collected from client-owned, pet cats that had been diagnosed with spontaneous chronic renal failure (chronic renal insufficiency). These cats were presented by owners/clients to veterinary practices for evaluation of general health, kidney function, and systolic blood pressure.
Chronic renal failure is generally considered an irreversible and progressive disease in cats. […] Cats were considered normotensive as defined by systolic arterial blood pressure less than 160 mm Hg prior to the onset of treatment.
Renal function was assessed by determining glomerular filtration rate (GFR). GFR was estimated from plasma clearance of the exogenous marker, iohexol, approximately 7 days prior to the onset of treatment (day—7) and on approximately days 28, 56, 112, and 224 following onset of treatment.

Assay [2] relates to normotensive nephrectomised cats with chronic renal failure. Kind of assay: GFR in normotensive nephrectomised cats with chronic renal failure (Example 1). The assay is classed as in vivo, cat. As to conditions: amlodipine besylate once daily at 0.125 mg/kg; after 35 days; no change in placebo group. The method, then: In this experiment, comparative groups of normotensive nephrectomised cats with chronic renal failure had their GFR measured. […] After 35 days the GFR was measured again. There was no change in the placebo group, but the GFR had increased by an average of ca. 28% for the amlodipine-treated group.

For `CCOC(=O)C1=C(COCCN)NC(C)=C(C(=O)OC)C1c1ccccc1Cl` (stereo not drawn) [Amlodipine, amlodipine besylate], the “GFR increase on average between day −7 and day 224” value in assay [1] (0.125 to 0.25 mg/kg once daily oral, placebo declined 17%) was 9%. The “effect on decline in renal function (in words)” value in assay [1] (0.125 to 0.25 mg/kg/day orally) is on record as “prevents the decline in function associated with the progression of chronic renal failure in cats”. For the same compound, the “increase in GFR (average)” value in assay [2] is given as “ca. 28%”.

The record behind these values is US6521647B2, “Treatment of renal disorders” (Pfizer Inc., priority 2000, dated 2003).
